Results as given in patent US20250114345A1, “COMPOUNDS AND COMPOSITIONS AS CBP/P300 DEGRADERS AND USES THEREOF” (Oncopia Therapeutics, Inc. d/b/a/ SK Life Science Labs, priority 2023, published 2025).

Molecular target: T1, p300 (Homo sapiens, UniProt Q09472)
T1 construct: host or cells: A549 P300 HiBit cells
Test: P300 degradation, HiBit technology in A549 P300 HiBit cells (2 h)
Assay type: cell-based
Conditions: 2 hrs post treatment; for Dmax: A549, A549 P300 HiBit cells; for DC50: A549 P300 HiBit cells
Procedure, shortened: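 Degradation potency and Dmax came from luminescence after 10 min room-temperature lysis with HiBit detection buffer. Beforehand, HiBit-tagged A549 lines received serial compound dilutions (10 mM DMSO stocks) at 37 °C, 5% CO2. CBP cells were read at 24 h, p300 cells at 2 h.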

T1 sequence (Q09472 whole entry): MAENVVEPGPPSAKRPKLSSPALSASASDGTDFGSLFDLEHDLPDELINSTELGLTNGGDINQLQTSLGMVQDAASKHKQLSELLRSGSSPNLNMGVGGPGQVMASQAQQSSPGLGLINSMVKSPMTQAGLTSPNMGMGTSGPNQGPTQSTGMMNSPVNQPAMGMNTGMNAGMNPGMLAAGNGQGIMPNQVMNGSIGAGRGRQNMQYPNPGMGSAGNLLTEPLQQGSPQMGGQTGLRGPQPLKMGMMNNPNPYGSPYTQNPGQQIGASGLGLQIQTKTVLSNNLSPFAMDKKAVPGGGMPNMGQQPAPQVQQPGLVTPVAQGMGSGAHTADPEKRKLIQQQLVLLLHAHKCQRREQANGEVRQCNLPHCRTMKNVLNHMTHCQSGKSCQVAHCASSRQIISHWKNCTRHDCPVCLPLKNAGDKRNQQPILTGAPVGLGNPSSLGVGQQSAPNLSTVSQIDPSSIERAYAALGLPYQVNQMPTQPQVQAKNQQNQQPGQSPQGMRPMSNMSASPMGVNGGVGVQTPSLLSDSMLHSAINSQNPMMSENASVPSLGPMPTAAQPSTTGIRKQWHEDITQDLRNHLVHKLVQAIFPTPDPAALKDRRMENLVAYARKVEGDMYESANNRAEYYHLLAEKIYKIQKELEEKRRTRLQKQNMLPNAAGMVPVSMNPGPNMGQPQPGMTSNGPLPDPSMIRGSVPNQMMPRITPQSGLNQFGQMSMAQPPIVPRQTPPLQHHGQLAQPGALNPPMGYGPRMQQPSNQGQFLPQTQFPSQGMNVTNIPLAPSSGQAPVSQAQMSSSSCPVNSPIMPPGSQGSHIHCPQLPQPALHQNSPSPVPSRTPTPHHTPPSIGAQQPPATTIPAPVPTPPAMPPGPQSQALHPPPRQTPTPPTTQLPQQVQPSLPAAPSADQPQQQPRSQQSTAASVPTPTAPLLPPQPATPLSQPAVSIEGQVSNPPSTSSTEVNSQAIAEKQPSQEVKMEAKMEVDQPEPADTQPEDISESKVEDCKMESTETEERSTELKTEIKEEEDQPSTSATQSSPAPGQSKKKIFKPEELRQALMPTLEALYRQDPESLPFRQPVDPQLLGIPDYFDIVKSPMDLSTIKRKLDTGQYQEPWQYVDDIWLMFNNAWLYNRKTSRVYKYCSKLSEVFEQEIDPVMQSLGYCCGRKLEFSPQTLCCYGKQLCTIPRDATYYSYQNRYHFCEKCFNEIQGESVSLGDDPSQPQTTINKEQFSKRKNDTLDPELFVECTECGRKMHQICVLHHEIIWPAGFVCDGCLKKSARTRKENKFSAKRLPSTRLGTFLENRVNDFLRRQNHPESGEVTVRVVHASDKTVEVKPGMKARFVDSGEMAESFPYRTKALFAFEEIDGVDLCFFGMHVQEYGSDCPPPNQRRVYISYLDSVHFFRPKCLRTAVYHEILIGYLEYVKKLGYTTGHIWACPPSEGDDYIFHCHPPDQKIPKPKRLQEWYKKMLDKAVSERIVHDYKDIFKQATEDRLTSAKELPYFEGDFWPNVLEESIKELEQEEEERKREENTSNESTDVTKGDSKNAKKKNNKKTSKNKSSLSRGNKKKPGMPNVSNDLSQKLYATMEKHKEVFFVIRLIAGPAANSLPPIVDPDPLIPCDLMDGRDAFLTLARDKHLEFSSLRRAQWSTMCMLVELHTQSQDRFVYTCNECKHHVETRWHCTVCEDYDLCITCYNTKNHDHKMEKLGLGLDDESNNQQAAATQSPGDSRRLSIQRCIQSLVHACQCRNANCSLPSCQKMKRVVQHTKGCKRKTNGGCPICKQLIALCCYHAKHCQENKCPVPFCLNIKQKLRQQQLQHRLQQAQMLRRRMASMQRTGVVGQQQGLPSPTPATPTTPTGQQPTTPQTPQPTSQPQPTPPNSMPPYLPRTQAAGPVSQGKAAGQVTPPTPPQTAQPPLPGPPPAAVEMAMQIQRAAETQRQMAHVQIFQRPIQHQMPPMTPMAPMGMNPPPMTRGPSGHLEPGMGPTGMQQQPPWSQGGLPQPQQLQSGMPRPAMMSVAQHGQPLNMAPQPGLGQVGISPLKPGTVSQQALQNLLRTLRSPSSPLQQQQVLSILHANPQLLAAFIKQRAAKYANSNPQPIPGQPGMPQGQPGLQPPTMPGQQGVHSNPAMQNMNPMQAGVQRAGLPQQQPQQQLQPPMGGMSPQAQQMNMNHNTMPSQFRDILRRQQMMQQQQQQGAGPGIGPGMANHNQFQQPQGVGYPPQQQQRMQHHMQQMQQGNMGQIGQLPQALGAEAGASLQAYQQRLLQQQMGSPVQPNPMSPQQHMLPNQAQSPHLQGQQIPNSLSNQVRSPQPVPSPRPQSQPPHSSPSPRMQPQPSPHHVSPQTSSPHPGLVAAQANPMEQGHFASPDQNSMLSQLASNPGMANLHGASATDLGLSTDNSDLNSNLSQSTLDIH

SMILES	Dmax [%]	DC50 [nM]
CN1CCN(c2ccc3c(c2)n(C)c(=O)n3C)c2cnc(-c3ccc(C(=O)NCC#Cc4cc5c(C6CCC(=O)NC6=O)nccc5o4)nc3)nc21 (centres unmarked) [Example A245, 5-(5-(1,3-dimethyl-2-oxo-2,3-dihydro-1H-benzo[d]imidazol-5-yl)-8-methyl-5,6,7,8-tetrahydropteridin-2-yl)-N-(3-(4-(2,6-dioxopiperidin-3-yl)furo[3,2-c]pyridin-2-yl)prop-2-yn-1-yl) picolinamide]	> 80	< 1
Cn1c(=O)n(C)c2cc(N3CCOc4nc(-c5ccc(C(=O)NCC#Cc6ccn7ncc(C8CCC(=O)NC8=O)c7c6)nc5)ncc43)ccc21 (centres unmarked) [Example A246, 5-(5-(1,3-dimethyl-2-oxo-2,3-dihydro-1H-benzo[d]imidazol-5-yl)-6,7-dihydro-5H-pyrimido[4,5-b][1,4]oxazin-2-yl)-N-(3-(3-(2,6-dioxopiperidin-3-yl)pyrazolo[1,5-a]pyridin-5-yl)prop-2-yn-1-yl)picolinamide]	40 to 59	1 to 9.9
CC(C)c1cc(-c2cccc3cc(-c4ccc(C(=O)NCC#Cc5cnc6c(c5)N(C5CCC(=O)NC5=O)CC6)nc4)ncc23)cc2c1n(C)c(=O)n2C (centres unmarked) [Example A249, N-(3-(1-(2,6-dioxo-piperidin-3-yl)-2,3-dihydro-1H-pyrrolo [3,2-b]pyridin-6-yl)prop-2-yn-1-yl)-5-(8-(7-isopropyl-1,3-dimethyl-2-oxo-2,3-dihydro-1H-benzo[d]imidazol-5-yl)isoquinolin-3-yl)picolinamide]	20 to 39	10 to 99
Cc1cc(-c2ncc3c(n2)OCCN3c2cc(C3CCOCC3)c3c(c2)n(C)c(=O)n3C)cnc1C(=O)NCC#Cc1cc2c(C3CCC(=O)NC3=O)cccc2o1 (centres unmarked) [Example A252, 5-(5-(1,3-dimethyl-2-oxo-7-(tetrahydro-2H-pyran-4-yl)-2,3-dihydro-1H-benzo[d]imidazol-5-yl)-6,7-dihydro-5H-pyrimido[4,5-b][1,4]oxazin-2-yl)-N-(3-(4-(2,6-dioxopiperidin-3-yl)benzofuran-2-yl)prop-2-yn-1-yl)-3-methylpicolinamide]	> 80	1 to 9.9
Cn1c(=O)n(C)c2c(N3CC4CCC(C3)O4)nc(-c3cccc4cc(-c5ccc(C(=O)NCC#Cc6cc7c(C8CCC(=O)NC8=O)cccc7o6)nc5)ncc34)cc21 (centres unmarked) [Example A253, 5-(8-(4-(8-oxa-3-azabicyclo[3.2.1]octan-3-yl)-1,3-dimethyl-2-oxo-2,3-dihydro-1H-imidazo[4,5-c]pyridin-6-yl)isoquinolin-3-yl)-N-(3-(4-(2,6-dioxopiperidin-3-yl)benzofuran-2-yl)prop-2-yn-1-yl)picolinamide]	> 80	< 1
Cc1cc(-c2ncc(N(C)c3cc(C4CCOCC4)c4c(c3)n(C)c(=O)n4C)cn2)cnc1C(=O)NCC#Cc1cc2c(C3CCC(=O)NC3=O)cccc2o1 (centres unmarked) [Example A256, 5-(5-((1,3-dimethyl-2-oxo-7-(tetrahydro-2H-pyran-4-yl)-2,3-dihydro-1H-benzo[d]imidazol-5-yl)(methyl)amino)pyrimidin-2-yl)-N-(3-(4-(2,6-dioxo-piperidin-3-yl)benzo-furan-2-yl)prop-2-yn-1-yl)-3-methylpicolinamide]	> 80	1 to 9.9
Cc1cc(-c2cc(F)c(Nc3cc(C4CCOCC4)c4c(c3)n(C)c(=O)n4C)cc2C(F)F)cnc1C(=O)NCC#Cc1cc2c(C3CCC(=O)NC3=O)cccc2o1 (centres unmarked) [Example A257, 5-(2-(difluoromethyl)-4-((1,3-dimethyl-2-oxo-7-(tetrahydro-2H-pyran-4-yl)-2,3-dihydro-1H-benzo [d]imidazol-5-yl)amino)-5-fluoro-phenyl)-N-(3-(4-(2,6-dioxopiperidin-3-yl)benzofuran-2-yl)prop-2-yn-1-yl)-3-methylpicolinamide]	60 to 79	1 to 9.9
Cc1cc(-c2ncc3c(n2)OCCN3c2ccc3c(c2)n(C)c(=O)n3C)cnc1C(=O)NCC#Cc1ccc2occ(C34CC(C3)C(=O)NC4=O)c2c1 [Example A262, 5-(5-(1,3-dimethyl-2-oxo-2,3-dihydro-1H-benzo[d]imidazol-5-yl)-6,7-dihydro-5H-pyrimido[4,5-b] [1,4]oxazin-2-yl)-N-(3-(3-(2,4-dioxo-3-azabicyclo[3.1.1]heptan-1-yl)benzofuran-5-yl)prop-2-yn-1-yl)-3-methylpicolinamide]	> 80	10 to 99
Cn1c(=O)n(C)c2cc(N3CC(C)(C)Oc4nc(-c5ccc(C(=O)NCC#Cc6cc7c(C8CCC(=O)NC8=O)cccc7o6)nc5)ncc43)ccc21 (centres unmarked) [Example A264, 5-(5-(1,3-dimethyl-2-oxo-2,3-dihydro-1H-benzo[d]imidazol-5-yl)-7,7-dimethyl-6,7-dihydro-5H-pyrimido [4,5-b][1,4]oxazin-2-yl)-N-(3-(4-(2,6-dioxopiperidin-3-yl)benzofuran-2-yl)prop-2-yn-1-yl)picolinamide]	> 80	1 to 9.9
Cn1c(=O)n(C)c2c(F)cc(N3CCOc4nc(-c5ccc(C(=O)NCC#Cc6cc7c(C8CCC(=O)NC8=O)cccc7o6)nc5)ncc43)cc21 (centres unmarked) [Example A265, N-(3-(4-(2,6-dioxo-piperidin-3-yl)benzofuran-2-yl)prop-2-yn-1-yl)-5-(5-(7-fluoro-1,3-dimethyl-2-oxo-2,3-dihydro-1H-benzo[d]imidazol-5-yl)-6,7-dihydro-5H-pyrimido[4,5-b][1,4]oxazin-2-yl)picolinamide]	20 to 39	10 to 99
CCn1c(=O)n(C)c2ccc(-c3cccc4cc(-c5ccc(C(=O)NCC#Cc6cc7c(C8CCC(=O)NC8=O)cccc7o6)nc5)ncc34)cc21 (centres unmarked) [Example A267, N-(3-(4-(2,6-dioxo-piperidin-3-yl)benzofuran-2-yl)prop-2-yn-1-yl)-5-(8-(3-ethyl-1-methyl-2-oxo-2,3-dihydro-1H-benzo [d]imidazol-5-yl)isoquinolin-3-yl)picolinamide]	> 80	1 to 9.9
Cn1c(=O)n(C)c2ncc(N3CCOc4nc(-c5ccc(C(=O)NCC#Cc6cc7c(C8CCC(=O)NC8=O)cccc7o6)nc5)ncc43)cc21 (centres unmarked) [Example A268, 5-(5-(1,3-dimethyl-2-oxo-2,3-dihydro-1H-imidazo[4,5-b]pyridin-6-yl)-6,7-dihydro-5H-pyrimido[4,5-b] [1,4]oxazin-2-yl)-N-(3-(4-(2,6-dioxopiperidin-3-yl)benzofuran-2-yl)prop-2-yn-1-yl)picolinamide]	20 to 39	10 to 99
CCc1cc(-c2cccc3cc(-c4ccc(C(=O)NCC#Cc5ccc6c(C)nn(C7CCC(=O)NC7=O)c6c5)nc4)ncc23)c2cc(C)c(=O)n(C)c2c1 (centres unmarked) [Example B1, N-(3-(1-(2,6-Dioxopiperidin-3-yl)-3-methyl-1H-indazol-6-yl)prop-2-yn-1-yl)-5-(8-(7-ethyl-1,3-dimethyl-2-oxo-1,2-dihydroquinolin-5-yl)isoquinolin-3-yl)picolinamide]	60 to 79	10 to 99
CCc1cc(-c2cccc3cc(-c4ccc(C(=O)NCC#Cc5cc6c(cnn6C6CCC(=O)NC6=O)cc5C)nc4)ncc23)c2cc(C)c(=O)n(C)c2c1 (centres unmarked) [Example B3, N-(3-(1-(2,6-Dioxopiperidin-3-yl)-5-methyl-1H-indazol-6-yl)prop-2-yn-1-yl)-5-(8-(7-ethyl-1,3-dimethyl-2-oxo-1,2-dihydroquinolin-5-yl)isoquinolin-3-yl)picolinamide]	20 to 39	10 to 99
CCc1cc(-c2cccc3cc(-c4ccc(C(=O)NCC#Cc5cc(C)c6cnn(C7CCC(=O)NC7=O)c6c5)nc4)ncc23)c2cc(C)c(=O)n(C)c2c1 (centres unmarked) [Example B6, N-(3-(1-(2,6-Dioxopiperidin-3-yl)-4-methyl-1H-indazol-6-yl)prop-2-yn-1-yl)-5-(8-(7-ethyl-1,3-dimethyl-2-oxo-1,2-dihydroquinolin-5-yl)isoquinolin-3-yl)picolinamide]	60 to 79	10 to 99
CCc1cc(S(=O)(=O)c2ccc(-c3cnc(C(=O)NCC#Cc4cccc(NC5CCC(=O)NC5=O)c4)c(C)c3)nc2)c2cc(C)c(=O)n(C)c2c1 (centres unmarked) [Example B10, N-(3-(3-((2,6-Dioxopiperidin-3-yl)amino)phenyl)prop-2-yn-1-yl)-5-((7-ethyl-1,3-dimethyl-2-oxo-1,2-dihydroquinolin-5-yl)sulfonyl)-5′-methyl-[2,3′-bipyridine]-6′-carboxamide]	< 20	> 1000
CCc1cc(N(C)c2ccc(-c3cnc(C(=O)NCC#Cc4cccc(NC5CCC(=O)NC5=O)c4)c(C)c3)c(Cl)c2)c2cc(C)c(=O)n(C)c2c1 (centres unmarked) [Example B11, 5-(2-Chloro-4-((7-ethyl-1,3-dimethyl-2-oxo-1,2-dihydroquinolin-5-yl)(methyl)amino)phenyl)-N-(3-(3-((2,6-dioxopiperidin-3-yl)amino)phenyl)prop-2-yn-1-yl)-3-methylpicolinamide]	> 80	10 to 99
CCc1cc(-c2cccc3cc(-c4ccc(C(=O)NCC#Cc5ccc6c(c5)ncn6C5CCC(=O)NC5=O)nc4)ncc23)c2cc(C)c(=O)n(C)c2c1 (centres unmarked) [Example B12, N-(3-(1-(2,6-Dioxopiperidin-3-yl)-1H-benzo[d]imidazol-5-yl)prop-2-yn-1-yl)-5-(8-(7-ethyl-1,3-dimethyl-2-oxo-1,2-dihydroquinolin-5-yl)isoquinolin-3-yl)picolinamide]	< 20	> 1000
CCc1cc(-c2cccc3cc(-c4ccc(C(=O)NCC#Cc5ccc6cnn(C7CCC(=O)NC7=O)c6c5)nc4)ncc23)c2c(n1)N(C)C(=O)N(C)C2 (centres unmarked) [Example B13, N-(3-(1-(2,6-Dioxopiperidin-3-yl)-1H-indazol-6-yl)prop-2-yn-1-yl)-5-(8-(7-ethyl-1,3-dimethyl-2-oxo-1,2,3,4-tetrahydropyrido[2,3-d]pyrimidin-5-yl)isoquinolin-3-yl)picolinamide]	> 80	1 to 9.9
